Measured values from ChEMBL document CHEMBL1137974, “1- and 2-substituted naphthalenes: a new class of potential hypotensive agents” (2004).
Activity calls are given as the source filed them. The calls are words filed in the database; no cut-off is given here.

Legend:
[1] = system: Felis catus; test: Duration of hypotensive activity in cat following i.v. administration of 5 mg/kg; type: functional; details: route intravenous
[2] = system: Felis catus; test: Hypotensive activity in cat following i.v. administration of 5 mg/kg expressed as fall in blood pressure; type: functional; details: route intravenous
[3] = system: Felis catus; test: Hypotensive activity in cat following i.v. administration of 1 mg/kg expressed as fall in blood pressure; type: functional; details: route intravenous
[4] = system: Felis catus; test: Duration of hypotensive activity in cat following i.v. administration of 1 mg/kg; type: functional; details: route intravenous
[5] = system: Felis catus; test: Hypotensive activity in cat following i.v. administration of 5 mg/kg expressed as fall in blood pressure; D denotes death; type: functional, organism-based; parameters: dose 5 mg/kg
[6] = system: Felis catus; test: Hypotensive activity in cat following i.v. administration of 5 mg/kg expressed as fall in blood pressure; NA denotes not active; type: functional, organism-based; parameters: dose 5 mg/kg; details: at 5 mg/kg
[7] = system: Felis catus; test: Hypotensive activity in cat following i.v. administration of 1 mg/kg expressed as fall in blood pressure; NA denotes not active; type: functional, organism-based; parameters: dose 1 mg/kg; details: for Max effect: at 1 mg/kg

Row | Compound | Duration [1] [min] | Decrease in blood pressure [2] [mmHg] | Max effect [2] [%] | Decrease in blood pressure [3] [mmHg] | Max effect [3] [%] | Duration [4] [min] | Decrease in blood pressure [5] | Max effect [6] | Decrease in blood pressure [7] | Max effect [7]
1 | O=C(O)C(CCOc1cccc2ccccc12)CN1CCNCC1 (stereo not given) | 7 | 25 | 19 | 12 | 7 | 12 |  |  |  | 
2 | O=C(O)C(CCOc1cccc2ccccc12)CN1CCCCC1 (stereo not given) | 50 | 40 | 47 | 30 | 19 | 16 |  |  |  | 
3 | CC(C)NCC(O)COc1cccc2ccccc12 (stereo not given) [PROPRANOLOL] | >60 | 50 | 41 | 46 | 35 | 40 |  |  |  | 
4 | O=C(O)C(CCOc1cccc2ccccc12)CN1CCOCC1 (stereo not given) | 2 | 16 | 17 | 18 | 17 | 2 |  |  |  | 
5 | CN1CCN(COc2ccc3ccccc3c2)CC1 |  |  |  | 18 | 21 | 2 | Death | inactive |  | 
6 | O=C(O)C(CCOc1cccc2ccccc12)CN1CCN(c2ccccc2)CC1 (stereo not given) | 7 | 50 | 40 | 20 | 14 | 2 |  |  |  | 
7 | CN1CCN(CC(CCOc2cccc3ccccc23)C(=O)O)CC1 (stereo not given) | 4 | 34 | 38 | 18 | 17 | 2 |  |  |  | 
8 | c1ccc2cc(OCN3CCCC3)ccc2c1 | 16 | 30 | 19 | 12 | 7 | 10 |  |  |  | 
9 | c1ccc2cc(OCN3CCCCC3)ccc2c1 | 17 | 44 | 52 | 20 | 21 | 2 |  |  |  | 
10 | O=C(O)C(CCOc1cccc2ccccc12)CN1CCCC1 (stereo not given) | 30 | 20 | 17 | 10 | 8 | 2 |  |  |  | 
11 | c1ccc(N2CCN(COc3ccc4ccccc4c3)CC2)cc1 | 120 | 60 | 75 | 40 | 50 | 16 |  |  |  | 
12 | c1ccc2cc(OCN3CCNCC3)ccc2c1 | 2 | 10 | 7 |  |  |  |  |  | inactive | inactive
13 | c1ccc2cc(OCN3CCOCC3)ccc2c1 | >35 | 50 | 41 |  |  |  |  |  | inactive | inactive
